# Values joined by “and” are separate entries in the source; they are usually repeats but may differ in a detail not shown here. Equal values may be shown once.
# How the values were obtained:
# Type in all cases: cell-based, human
# [1] = tested on: SOX9; assay: Stem cell chondrogenesis, real time PCR gene expression: SOX9; settings: Day 14; for regulation, SOX9 / Mean regulation, SOX9: fold regulation vs saline; for regulation, SOX9 / ΔCp, SOX9 / 2^-ΔΔCp vs saline, SOX9 / ΔΔCp vs saline, SOX9: single replicate well; for Mean regulation, SOX9 / Mean ΔCp, SOX9: triplicate wells; for ΔCp, SOX9: human bone marrow MSC, chondrogenic medium + TGF beta 3; for ΔCp, SOX9 / 2^-ΔΔCp vs saline, SOX9 / ΔΔCp vs saline, SOX9 / Mean ΔCp, SOX9: vs Actin
# Protocol: The treatment protocol included expanding 5 HUXMA stem cells in 182 cm^2 flasks containing 40 […] to 80-90% confluence. Cells were trypsinized from the flasks and a 1.0×10^7 cell suspension of HUXMA stem cells was warmed in Cyagen Chondrogenic Differentiation medium. 20 μl of warmed cell suspension was spotted in the middle of each well of a 24-well tissue culture plate (200,000 cells per spot), and incubated at 37° C. and 5% CO2 for one hour. […] Medium exchanges were performed every 3-4 days by aspirating the medium from the wells and replacing with fresh chondrogenic medium, diluted stocks, and TGF beta 3, as described above. […] Medium from the wells was removed and saved for further protein analysis. Qiagen RNeasy plus lysis buffer (with 2mercaptoethanol) was added to each well and gently shaken for 10 minutes. The lysed cell suspensions from each well were transferred to Qiashredder columns and spun at 14,000 rpm for 2 minutes. RNA isolation proceeded by RNeasyTM plus manufacturer's protocol. RNA was eluted from the Qiagen columns using 25 μl RNase free water. cDNA synthesis and real time PCR was conducted as follows. First strand synthesis of cDNA from all samples was performed in 20 μl total volume using 10 μl isolated RNA. All cDNA reactions were then diluted with 30 μl nuclease free water. Real time PCR was then performed using 5 μl diluted cDNA, Roche Syber green master mix, and Qiagen RT^2 gPCRTM primer pairs in 20 μl total reaction volume.
# [2] = tested on: Collagen 2A1; assay: Stem cell chondrogenesis, real time PCR gene expression: Collagen 2A1; settings: for Cp Coll / Mean regulation: Collagen 2A1; for Cp Coll / Mean regulation / Mean ΔCp / ΔCp: Day 22; for Mean regulation: vs saline; for Mean ΔCp / ΔCp: Collagen 2A1 vs GAPDH; for regulation, Collagen 2A1 / Mean regulation, Collagen 2A1: fold regulation vs saline; for regulation, Collagen 2A1 / ΔCp, Collagen 2A1 / 2^-ΔΔCp vs saline, Collagen 2A1 / ΔΔCp vs saline, Collagen 2A1: single replicate well; for Mean regulation, Collagen 2A1 / Mean ΔCp, Collagen 2A1: triplicate wells; for ΔCp, Collagen 2A1: human bone marrow MSC, chondrogenic medium + TGF beta 3; for ΔCp, Collagen 2A1 / 2^-ΔΔCp vs saline, Collagen 2A1 / ΔΔCp vs saline, Collagen 2A1 / Mean ΔCp, Collagen 2A1: vs Actin
# Protocol: • Stem Cells: Bone marrow derived human mesenchymal stem cells: Passage 5 Bone marrow derived human mesenchymal stem cells (HUXMA-01001, Cyagen Biosciences, Sunnyvale Calif.) • Mesenchymal Stem Cell Chondrogenic Differentiation medium (GUXMX-90041, Cyagen Biosciences, Sunnyvale Calif.) • TheraPEAK MSCGM chemically defined Stem cell medium (190632 Lonza) • 1 mM Dexamethasone acetate and mifepristone in absolute ethanol (Sigma) • Saline or 0.9% Sodium chloride for injection ZR Flush (Excelsior Medical, Neptune N.J.) • Sterile filtered 0.6 mM sodium caprylate in saline (sigma) • Sterile filtered 3 mM NAT in saline (sigma); To prepare, heat at 60° C. for 30 minutes then sonicate for 5 minutes. • Sterile filtered 10 mM DADKP in saline • 0.2 μM syringe filters • Hepes buffered saline, Trypsin/EDTA, Trypsin neutralizing solution (Lonza reagent pack) • 182 cm2 tissue culture flasks • pipettes and sterile tips • Tissue culture hood, humidified CO2 incubator, water or bead bath • 24 well tissue culture plates • Qiagen RNeasy plus spin columns (Qiagen 74134) • Qiagen RT2 qPCR primer pairs for Collagen 2A1, MMP13, TIMP1, Aggrecan, GAPDH, and Actin B • Roche Sybr green I master mix and Invitrogen Superscript VILO master mix. • Roche 480 lightcycler
# The following stock drug treatment solutions were prepared in saline for injection and warmed to 37° C. in bath: • 4 μM dexamethasone • 4 μM mifepristone • 3 mM NAT • 0.6 mM caprylate • 80 μM DADKP • Mix of 3 mM NAT, 0.6 mM caprylate, 80 μM DADKP (“Ampion” mix)
# Cyagen Chondrogenic Differentiation medium was prepared by manufacturer protocols but excluding dexamethasone and TGF beta 3 supplements, and warmed to 37° C. in bath.
# The treatment protocol included expanding 5 HUXMA stem cells in 182 cm^2 flasks containing 40 mls TheraPEAK™ MSCGM to 80-90% confluence. Cells were trypsinized from the flasks and a 1.0×10^7 cell suspension of HUXMA stem cells was warmed in Cyagen Chondrogenic Differentiation medium. 20 μl of warmed cell suspension was spotted in the middle of each well of a 24-well tissue culture plate (200,000 cells per spot), and incubated at 37° C. and 5% CO2 for one hour.
# The plates were removed from the incubator and an additional 720 μl chondrogenic medium was added to each well. 250 μl saline, or drug solutions were added to the appropriate wells in triplicate (bringing the final drug dilution to one-quarter of the stock drug treatment solution concentrations). 10 μl of TGF beta 3 solution (supplied by Cyagen) was added to each well, and the plates were returned to the incubator.
# RNA isolation and analysis was conducted for all plates as follows at days 7, 14, and 22 post treatment (with the described medium exchanges). […] Qiagen RNeasy plus lysis buffer (with 2mercaptoethanol) was added to each well and gently shaken for 10 minutes. The lysed cell suspensions from each well were transferred to Qiashredder columns and spun at 14,000 rpm for 2 minutes. RNA isolation proceeded by RNeasy™ plus manufacturer's protocol. RNA was eluted from the Qiagen columns using 25 μl RNase free water.
# cDNA synthesis and real time PCR was conducted as follows. First strand synthesis of cDNA from all samples was performed in 20 μl total volume using 10 μl isolated RNA. All cDNA reactions were then diluted with 30 μl nuclease free water. Real time PCR was then performed using 5 μl diluted cDNA, Roche Syber green master mix, and Qiagen RT^2 gPCR™ primer pairs in 20 μl total reaction volume. Relative gene expression was determined by delta deta Ct method.
# [3] = tested on: MMP13; assay: Stem cell chondrogenesis, real time PCR gene expression: MMP13; settings: for regulation, MMP13 / Mean regulation, MMP13 / ΔCp, MMP13 / 2^-ΔΔCp vs saline, MMP13 / ΔΔCp vs saline, MMP13 / Mean ΔCp, MMP13: Day 7; for regulation, MMP13 / Mean regulation, MMP13: fold regulation vs saline; for regulation, MMP13 / ΔCp, MMP13 / 2^-ΔΔCp vs saline, MMP13 / ΔΔCp vs saline, MMP13: single replicate well; for Mean regulation, MMP13 / Mean ΔCp, MMP13: triplicate wells; for ΔCp, MMP13: human bone marrow MSC, chondrogenic medium + TGF beta 3; for ΔCp, MMP13 / 2^-ΔΔCp vs saline, MMP13 / ΔΔCp vs saline, MMP13 / Mean ΔCp, MMP13: vs Actin; for Cp, MMP13 / ΔΔCp vs saline / 2^-ΔΔCp vs saline / Mean regulation / Mean ΔCp / ΔCp: Day 22; for Cp, MMP13 / ΔΔCp vs saline / 2^-ΔΔCp vs saline / Mean regulation: MMP13; for Mean regulation: vs saline; for Mean ΔCp / ΔCp: MMP13 vs GAPDH
# [4] = tested on: TIMP1; assay: Stem cell chondrogenesis, real time PCR gene expression: TIMP1; settings: Day 22; for Cp TIMP1 / 2-^ΔΔCp vs saline / Mean regulation / regulation: TIMP1; for Mean regulation / regulation: vs saline; for Mean ΔCp / ΔCp: TIMP1 vs Actin
# [5] = tested on: Aggrecan; assay: Stem cell chondrogenesis, real time PCR gene expression: Aggrecan; settings: Day 22; for Mean ΔCp / ΔCp: Aggrecan vs Actin; for Cp Agg / Mean regulation: Aggrecan; for Mean regulation: vs saline
smiles,measurement,setting,value
"CC#C[C@]1(O)CC[C@H]2[C@@H]3CCC4=CC(=O)CCC4=C3[C@@H](c3ccc(N(C)C)cc3)C[C@@]21C [Mifepristone, mifepristone]","regulation, SOX9",[1],1.24 and 1.17 and 1.16
same,"Mean regulation, SOX9",[1],1.19
same,"ΔCp, SOX9",[1],6.87 and 6.95 and 6.96
same,"2^-ΔΔCp vs saline, SOX9",[1],1.2397 and 1.1728 and 1.1647
same,"ΔΔCp vs saline, SOX9",[1],−0.31 and −0.23 and −0.22
same,"Mean ΔCp, SOX9",[1],6.927
same,Cp Coll,[2]; Table 12,25.99 and 27.6 and 26.84
same,Cp Coll,[2]; Table 16,25.99 and 27.6 and 26.84
same,Mean regulation,[2]; Table 12,16.82
same,Mean regulation,[2]; Table 16,16.82
same,Mean ΔCp,[2]; Table 12,9.22
same,ΔCp,[2]; Table 12,8.52 and 10.14 and 9
same,Mean ΔCp,[2]; Table 16,9.22
same,ΔCp,[2]; Table 16,8.52 and 10.14 and 9
same,"regulation, Collagen 2A1",[2]; Day 7,−1.12 and −3.11 and −1.23
same,"Mean regulation, Collagen 2A1",[2]; Day 7,−1.82
same,"ΔCp, Collagen 2A1",[2]; Day 7,6.9 and 8.37 and 7.03
same,"2^-ΔΔCp vs saline, Collagen 2A1",[2]; Day 7,0.8909 and 0.3216 and 0.8141
same,"ΔΔCp vs saline, Collagen 2A1",[2]; Day 7,0.167 and 1.637 and 0.297
same,"Mean ΔCp, Collagen 2A1",[2]; Day 7,7.433
same,"regulation, Collagen 2A1",[2]; Day 14,1.21 and 1.07 and 1.57
same,"Mean regulation, Collagen 2A1",[2]; Day 14,1.28
same,"ΔCp, Collagen 2A1",[2]; Day 14,10.78 and 10.96 and 10.41
same,"2^-ΔΔCp vs saline, Collagen 2A1",[2]; Day 14,1.2114 and 1.0693 and 1.5655
same,"ΔΔCp vs saline, Collagen 2A1",[2]; Day 14,−0.28 and −0.1 and −0.65
same,"Mean ΔCp, Collagen 2A1",[2]; Day 14,10.72
same,"regulation, MMP13",[3],−1.49 and −1.34
same,"Mean regulation, MMP13",[3],−2.47
same,"ΔCp, MMP13",[3],5.21 and 6.83 and 5.06
same,"2^-ΔΔCp vs saline, MMP13",[3],0.6721 and 0.2186 and 0.7457
same,"ΔΔCp vs saline, MMP13",[3],0.573 and 2.193 and 0.423
same,"Mean ΔCp, MMP13",[3],5.7
same,"Cp, MMP13",[3]; Table 12,20.98 and 21.32 and 21.37
same,ΔΔCp vs saline,[3]; Table 12,0.517 and 0.867 and 0.537
same,2^-ΔΔCp vs saline,[3]; Table 16,0.699 and 0.5484 and 0.6894
same,"Cp, MMP13",[3]; Table 16,20.98 and 21.32 and 21.37
same,ΔΔCp vs saline,[3]; Table 16,0.517 and 0.867 and 0.537
same,Mean regulation,[3]; Table 12,−1.57
same,Mean regulation,[3]; Table 16,−1.57
same,Mean ΔCp,[3]; Table 12,3.633
same,ΔCp,[3]; Table 12,3.51 and 3.86 and 3.53
same,Mean ΔCp,[3]; Table 16,3.633
same,ΔCp,[3]; Table 16,3.51 and 3.86 and 3.53
same,Cp TIMP1,[4]; Table 12,19.69 and 19.8 and 19.76
same,2-^ΔΔCp vs saline,[4]; Table 16,0.6958 and 0.8448 and 0.6537
same,Cp TIMP1,[4]; Table 16,19.76 and 19.69 and 19.8
same,Mean regulation,[4]; Table 12,−1.38
same,Mean ΔCp,[4]; Table 12,4.227
same,ΔCp,[4]; Table 12,4.01 and 4.38 and 4.29
same,Mean ΔCp,[4]; Table 16,4.227
same,ΔCp,[4]; Table 16,4.29 and 4.01 and 4.38
same,Mean ΔCp,[5]; Table 12,9.247
same,ΔCp,[5]; Table 12,10.29 and 8.98 and 8.47
same,Mean ΔCp,[5]; Table 16,9.247
same,ΔCp,[5]; Table 16,10.29 and 8.98 and 8.47
same,Cp Agg,[5]; Table 12,25.97 and 24.4 and 23.94
same,Cp Agg,[5]; Table 16,25.97 and 24.4 and 23.94
same,Mean regulation,[5]; Table 12,1.55
same,Mean regulation,[5]; Table 16,1.55
"CC(=O)N[C@@H](Cc1c[nH]c2ccccc12)C(=O)O [NAT, N-acetyl-tryptophan]","regulation, SOX9",[1],−2.30 and 2.11 and 2.04
same,"Mean regulation, SOX9",[1],0.62
same,"ΔCp, SOX9",[1],8.38 and 6.1 and 6.15
same,"2^-ΔΔCp vs saline, SOX9",[1],0.4353 and 2.114 and 2.042
same,"ΔΔCp vs saline, SOX9",[1],1.2 and −1.08 and −1.03
same,"Mean ΔCp, SOX9",[1],6.877
same,Cp Coll,[2]; Table 12,24.2 and 23.63 and 24.67
same,Cp Coll,[2]; Table 16,24.2 and 23.63 and 24.67
same,Mean regulation,[2]; Table 12,262.94
same,Mean regulation,[2]; Table 16,262.94
same,Mean ΔCp,[2]; Table 12,5.207
same,ΔCp,[2]; Table 12,4.75 and 4.87 and 6
same,Mean ΔCp,[2]; Table 16,5.207
same,ΔCp,[2]; Table 16,4.75 and 4.87 and 6
same,"regulation, Collagen 2A1",[2]; Day 7,−1.40 and 1.01 and −1.43
same,"Mean regulation, Collagen 2A1",[2]; Day 7,−0.61
same,"ΔCp, Collagen 2A1",[2]; Day 7,7.22 and 6.72 and 7.25
same,"2^-ΔΔCp vs saline, Collagen 2A1",[2]; Day 7,0.7137 and 1.0093 and 0.699
same,"ΔΔCp vs saline, Collagen 2A1",[2]; Day 7,0.487 and −0.01 and 0.517
same,"Mean ΔCp, Collagen 2A1",[2]; Day 7,7.063
same,"regulation, Collagen 2A1",[2]; Day 14,−3.42 and 7.09 and 7.76
same,"Mean regulation, Collagen 2A1",[2]; Day 14,3.81
same,"ΔCp, Collagen 2A1",[2]; Day 14,12.83 and 8.23 and 8.1
same,"2^-ΔΔCp vs saline, Collagen 2A1",[2]; Day 14,0.2925 and 7.0943 and 7.7633
same,"ΔΔCp vs saline, Collagen 2A1",[2]; Day 14,1.773 and −2.83 and −2.96
same,"Mean ΔCp, Collagen 2A1",[2]; Day 14,9.72
same,"regulation, MMP13",[3],−1.43 and −1.81 and −2.45
same,"Mean regulation, MMP13",[3],−1.89
same,"ΔCp, MMP13",[3],5.15 and 5.49 and 5.93
same,"2^-ΔΔCp vs saline, MMP13",[3],0.7006 and 0.5535 and 0.408
same,"ΔΔCp vs saline, MMP13",[3],0.513 and 0.853 and 1.293
same,"Mean ΔCp, MMP13",[3],5.523
same,"Cp, MMP13",[3]; Table 12,22.68 and 21.71 and 21.65
same,2^-ΔΔCp vs saline,[3]; Table 16,0.8487 and 1.0305 and 1.0093
same,"Cp, MMP13",[3]; Table 16,22.68 and 21.71 and 21.65
same,Mean regulation,[3]; Table 12,0.29
same,Mean regulation,[3]; Table 16,0.29
same,Mean ΔCp,[3]; Table 12,3.053
same,ΔCp,[3]; Table 12,3.23 and 2.95 and 2.98
same,Mean ΔCp,[3]; Table 16,3.053
same,ΔCp,[3]; Table 16,3.23 and 2.95 and 2.98
same,Cp TIMP1,[4]; Table 12,20.59 and 21.28 and 20.57
same,2-^ΔΔCp vs saline,[4]; Table 16,1.2894 and 1.1225 and 1.1147
same,Cp TIMP1,[4]; Table 16,20.59 and 21.28 and 20.57
same,Mean regulation,[4]; Table 12,1.18
same,regulation,[4]; Table 12,1.29 and 1.12 and 1.11
same,regulation,[4]; Table 16,1.29 and 1.12 and 1.11
same,Mean ΔCp,[4]; Table 12,3.537
same,ΔCp,[4]; Table 12,3.4 and 3.6 and 3.61
same,Mean ΔCp,[4]; Table 16,3.537
same,ΔCp,[4]; Table 16,3.4 and 3.6 and 3.61
same,Mean ΔCp,[5]; Table 12,7.1
same,ΔCp,[5]; Table 12,8.24 and 5.62 and 7.44
same,Mean ΔCp,[5]; Table 16,7.1
same,ΔCp,[5]; Table 16,8.24 and 5.62 and 7.44
same,Cp Agg,[5]; Table 12,25.43 and 23.3 and 24.4
same,Cp Agg,[5]; Table 16,25.43 and 23.3 and 24.4
same,Mean regulation,[5]; Table 12,11.66
same,Mean regulation,[5]; Table 16,11.66

# Source: patent publication US11026940B2, “Compositions for the mobilization, homing, expansion and differentiation of stem cells and methods of using the same” (Ampio Pharmaceuticals, Inc., priority 2013, dated 2021)
